Assay results: US9241916B2, “Cognitive performance with sirtuin activators” (President and Fellows of Harvard College, priority 2005, dated 2016)
“Also recorded” adds a separate entry of the source.

Experiments:
[1] = tested on: C57BL/6J mice; assay: Context- and tone-dependent Pavlovian fear conditioning, icv. injection; assay type: in vivo; settings: vs. vehicle
From the text: A fundamental type of learning is associative learning that can be analyzed in rodents using the pavlovian fear conditioning paradigm (Fendt and Fanselow, 1999; Fischer et al., 2003). As fear conditioning is a robust and commonly used method to analyze learning and allows to delineate the involvement of distinct brain structures in the learning process, we choose this paradigm to investigate the effect of reveratrol on learning. The principle of Pavlovian fear conditioning is as follows. During the training procedure mice are exposed to a novel context (context 1), consisting of an observation chamber with defined lightning, odor, background noise and geometry. After exploring this novel environment for 180 s the animals are exposed to a tone for 30 s followed by a mild electric foot shock for 2 s. On the basis of associative learning mice display aversive freezing behavior during a memory test consisting of re-expose to the conditioning context 24 h after the training. […] Tone-dependent fear memories can be analyzed by presenting the tone in context 2. Freezing is an inborn behavior that rodents express in threatening situations. It is defined as the complete absence of movement, except respiration and heartbeat. Whereas mice display no freezing behavior during training, a significant increase of freezing behavior is observed upon re-exposure to the conditioned context only. Therefore, freezing behavior is commonly used to quantify the amount of learning. C57BL/6J mice were anesthetized and microcannula (PlasticOne; AP −0 mm, lateral 1 mm, depth 2 mm) were implanted into the lateral brain ventricles (icv). […] The animals were trained by context- and tone-dependent fear conditioning 24 h after the last icv. injection and memory retention was analyzed the following day (see FIG. 1A). […] The mice were tested for memory retention 24 h later by re-exposure to the conditioning context.

[2] = tested on: mice; assay: Context- and tone-dependent fear conditioning, intra-hippocampal (i.h.) injection; assay type: in vivo; settings: vs. vehicle
From the text: (§1) The principle of Pavlovian fear conditioning is as follows. During the training procedure mice are exposed to a novel context (context 1), consisting of an observation chamber with defined lightning, odor, background noise and geometry. After exploring this novel environment for 180 s the animals are exposed to a tone for 30 s followed by a mild electric foot shock for 2 s. On the basis of associative learning mice display aversive freezing behavior during a memory test consisting of re-expose to the conditioning context 24 h after the training. […] Tone-dependent fear memories can be analyzed by presenting the tone in context 2. Freezing is an inborn behavior that rodents express in threatening situations. It is defined as the complete absence of movement, except respiration and heartbeat. Whereas mice display no freezing behavior during training, a significant increase of freezing behavior is observed upon re-exposure to the conditioned context only. Therefore, freezing behavior is commonly used to quantify the amount of learning. Context-dependent fear conditioning requires the hippocampus whereas tone-dependent fear conditioning relies on an intact amygdala (Kim and Fanselow, 1992).

[3] = tested on: mice; assay: Ethanol-induced impairment of context-dependent fear conditioning; assay type: in vivo
From the text: as §1, with “Whereas mice display no freezing behavior during training, a significant increase of freezing behavior is observed upon re-exposure to the conditioned context only.” left out, “learning.” for “learning. Context-dependent fear conditioning requires the hippocampus whereas tone-dependent fear conditioning relies on an intact amygdala (Kim and Fanselow, 1992).”

[4] = tested on: CK-p25 mice; assay: p25-mediated cognitive decline, fear conditioning in CK-p25 mice; assay type: in vivo; settings: p25 induced for 5 weeks, icv. 5 μg/mouse 2-3×/week, vs. vehicle
From the text: as §1, with “Whereas mice display no freezing behavior during training, a significant increase of freezing behavior is observed upon re-exposure to the conditioned context only.” left out, “learning.” for “learning. Context-dependent fear conditioning requires the hippocampus whereas tone-dependent fear conditioning relies on an intact amygdala (Kim and Fanselow, 1992).”

[5] = molecular target: T1, Sirt1 deacetylase (Homo sapiens, UniProt Q96EB6); settings: Howitz et al., 2003; Wood et al., 2004; cited from earlier work
T1 sequence (Q96EB6 1-747): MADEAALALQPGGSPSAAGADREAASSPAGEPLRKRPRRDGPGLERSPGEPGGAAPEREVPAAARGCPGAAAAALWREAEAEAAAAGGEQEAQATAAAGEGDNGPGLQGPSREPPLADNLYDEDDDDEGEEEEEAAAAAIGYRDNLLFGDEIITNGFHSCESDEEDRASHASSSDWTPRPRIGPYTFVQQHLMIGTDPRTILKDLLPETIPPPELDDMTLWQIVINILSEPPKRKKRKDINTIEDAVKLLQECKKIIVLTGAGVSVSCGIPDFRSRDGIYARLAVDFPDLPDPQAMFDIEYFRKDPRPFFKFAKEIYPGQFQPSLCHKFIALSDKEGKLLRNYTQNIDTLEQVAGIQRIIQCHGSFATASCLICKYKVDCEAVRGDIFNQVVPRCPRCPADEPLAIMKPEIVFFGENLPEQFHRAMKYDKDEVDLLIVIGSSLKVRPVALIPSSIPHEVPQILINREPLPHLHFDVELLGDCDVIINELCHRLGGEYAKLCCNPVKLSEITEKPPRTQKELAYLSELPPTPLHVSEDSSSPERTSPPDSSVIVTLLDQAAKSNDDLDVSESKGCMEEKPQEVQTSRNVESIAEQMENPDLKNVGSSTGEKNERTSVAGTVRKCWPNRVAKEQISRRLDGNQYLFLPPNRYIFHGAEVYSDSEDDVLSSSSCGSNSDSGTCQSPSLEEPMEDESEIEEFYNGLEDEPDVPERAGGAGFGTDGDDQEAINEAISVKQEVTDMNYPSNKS

[6] = icv. 5 μg/mouse for 7 consecutive days, training 24 h after last injection, memory test the following day
[7] = single icv. injection 5 μg/mouse immediately after training, test 24 h later

| SMILES | freezing behavior during the context-dependent memory test [1, 6] | freezing behavior during the tone-dependent memory test [1, 6] | freezing behavior during the context-dependent memory test [1, 7] | freezing behavior during the tone-dependent memory test [1, 7] | freezing behavior during the context-dependent memory test ([2]; i.h. 5 μg/mouse 4 h after the training) | freezing during the tone-dependent memory test ([2]; i.h. 5 μg/mouse immediately or 4 h after the training) | freezing behavior during the context-dependent memory test (prevention of ethanol-induced impairment) ([3]; ip. 30 mg/kg resveratrol in 33% ethanol/PBS immediately after training, compared with PBS and ethanol groups, 30 mg/kg) | freezing behavior, memory retention 24 h after fear conditioning [4] | agonism of the Sirt1 deacetylase [5] | freezing behavior during the context-dependent memory test (impairment by ethanol) ([3]; ip. 33% ethanol/PBS immediately after training) |
| --- | --- | --- | --- | --- | --- | --- | --- | --- | --- | --- |
| Oc1ccc(C=Cc2cc(O)cc(O)c2)cc1 [resveratrol, 3,5,4′-tri-hydroxystilbene] | significantly increased freezing behavior | significantly increased freezing behavior | significantly increased freezing behavior; also recorded: significantly enhanced freezing | significantly increased freezing behavior | significantly enhanced freezing behavior | not different among groups | performed indistinguishable to mice injected only with PBS; also recorded: attenuated this effect | significantly enhanced | potent agonist | – |
| CCO [ethanol] | – | – | – | – | – | – | – | – | – | impaired freezing behavior; also recorded: severe impaired freezing |
